Laboratory results from patent US12448352B2, “Beta adrenergic agonist and methods of using the same” (Curasen Therapeutics, Inc., priority 2019, dated 2025).

Tests used:
[1] = Plasma protein binding, equilibrium dialysis (rat); assay type: in vitro ADME; settings: 1 μM, 6 hours dialysis
Description: (§1) Preparation of 100 mM sodium phosphate and 150 mM NaCl buffer (PBS). A basic solution was prepared by dissolving 14.2 g/L Na2HPO4 and 8.77 g/L NaCl in deionized water and the solution could be stored at 4° C. for up to 7 days. An acidic solution was prepared by dissolving 12.0 g/L NaH2PO4 and 8.77 g/L NaCl in deionized water and the solution could be stored at 4° C. for up to 7 days. The basic solution was titrated with the acidic solution to pH 7.4 and store at 4° C. for up to 7 days. pH was checked on the day of experiment and was adjusted if outside specification of 7.4±0.1.
(§2) Thawing of the frozen plasma (stored at −80° C.). Frozen plasma was thawed immediately at room temperature. The plasma was centrifuged at 3,220 g for 10 minutes to remove clots and supernatant was collected into a fresh tube. The pH of the plasma was checked and recorded. Note: a). Only use plasma that has been thawed no more than twice since arrival. b). Only use plasma within the range of pH 7 to pH 8.
(§3) Preparation of working solutions. The working solutions of test compound and control compound ketoconazole were prepared in DMSO at the concentration of 200 μM. And then 3 μL of working solutions was removed to mix with 597 μL of rat plasma to achieve a final concentration of 1 μM (0.5% DMSO). Plasma samples were vortexed thoroughly.
(§4) Preparation of dialysis membranes. […]

[2] = Rat CNS exposure (plasma, CSF, brain); assay type: in vivo, male SD rats; settings: SC 1 mg/kg, 1.00 h
Description: (§5) These rats were typically about 6-8 weeks old, weighing 200 g to 300 g. Animals were fasted overnight and free access to food 4 hours after dosing. A required volume of vehicle was added to reach the target concentration of the test article and vehicle component to prepare for the dosing. The dosing vehicle was PEG400 or 30% PEG400 in saline for IV, or 0.5% methylcellulose in water for PO. For IV dosing, the animals were administered intravenously via tail vein. For PO dosing, the animals were administered via oral gavage. After dosing, blood sample was collected (˜0.2 mL per time point) through jugular vein or heart puncture. Blood of each sample was transferred into plastic micro centrifuge tubes containing EDTA-K2. Collection tubes with blood samples and anticoagulant were inverted several times for proper mixing of the tube contents and then placed on wet ice. The blood samples were centrifuged at 2000 g for 5 minutes at 4° C. to obtain plasma which was stored in a freezer at −75±15° C. prior to analysis. Samples were analyzed using LC-MS/MS. WinNonlin were used for pharmacokinetic calculations.
(§6) For CSF sampling, after anesthesia, the foramen magnum was exposed, and a syringe was used with a venoclysis needle to sample the CSF. The CSF samples were stored in polypropylene tubes, then stored in a freezer at −75±15° C. prior to analysis.
(§7) For brain sampling, the rats were fully exsanguinated by using a risen of carbon dioxide prior to brain collection. Brain samples were then collected at adopted time point, quick frozen and kept at −75±15° C. All brain samples were weighted and homogenated with PBS by brain weight (g) to PBS volume (mL) ratio 1:3 before analysis. The actual concentration is the detected value multiplied by the dilution factor.

[3] = Plasma protein binding, equilibrium dialysis (human); assay type: in vitro ADME
Description: as §1, §2, §3, §4

[4] = Monkey pharmacokinetic study; assay type: in vivo, male Non-Naïve Cynomolgus Monkeys; settings: PO 0.3 mg/kg
Description: as §5, with “The rat pharmacokinetics studies of exemplary compounds 03-3, 03-5, and 03-115 were conducted with male SD rats. These” for “These”
Monkey pharmacokinetics studies of exemplary compounds 03-3, 03-5, and 03-115 were conducted substantially similarly to the rat pharmacokinetic studies, instead using male Non-Naïve Cynomolgus Monkeys. Animals for PO studies were food fasted overnight prior to dosing and were fed approximately 2 hours after dosing. Animals for IV studies had free access to food and water. Blood samples were collected through venipuncture of peripheral veins except the dosing vein.

[5] = Mouse CNS exposure (plasma, CSF, brain); assay type: in vivo, male C57BL/6J mice; settings: SC 1 mg/kg, 60 min
Description: as §5, §6, §7
These mice were typically about 6-8 weeks old, weighing 20 g to 30 g. Animals were free access to food before dosing. Sample amount was ˜0.03 mL per time point and sample site was dorsal metatarsal or heart puncture.

Q: Which “PPB (rat), Percent of Unbound Fractions” value [1] does the source give for `Cc1ncccc1[C@@H](O)CNC(C)(C)C` [Compound 03-115] here?
A: 97%

Q: And the “Concentration, Brain” value [2]?
A: 142 ng/g

Q: What about the “Concentration, CSF” value [2] of the same compound?
A: 56.2 ng/mL

Q: What about the “Concentration, Plasma” value [2] of the same compound?
A: 149 ng/mL

Q: What about the “PPB (human), Percent of Unbound Fractions” value [3] of the same compound?
A: 100%

Q: What about the AUCInf [4] of the same compound?
A: 261 ng·h/mL

Q: What about the Cmax [4] of the same compound?
A: 67 ng/mL

Q: What about the MRTInf_obs [4] of the same compound?
A: 3.46 h

Q: And the Tmax [4]?
A: 1.17 h

Q: What about the “Concentration, Brain” value [5] of the same compound?
A: 280 ng/g

Q: And the “Concentration, CSF” value [5]?
A: 157 ng/mL

Q: What about the “Concentration, Plasma” value [5] of the same compound?
A: 270 ng/mL
